Results as given in patent US20250228821A1 (priority 2022, published 2025).

Experiments:
[1] = Blood/brain barrier penetration, pharmacokinetic study in rats; conditions: rat, 1 mg/kg intravenously
Description: Blood samples were collected from 3 animals at 0.25, 1-, and 4-hours post-dose. Brain samples were collected from 9 other rats, 3 each at 0.25, 1-, and 4-hours post-dose. Brain samples were weighted and homogenized with phosphate buffered saline.

[2] = system: rats treated with dextroamphetamine; assay: Ultrasonic vocalizations in rats induced by dextroamphetamine; assay type: in vivo, male Wistar rats; conditions: rats, 10, 30, 100 mg/kg IP 60 minutes before D-amphetamine 2.5 mg/kg IP (FIG. 9)
Procedure: 98 male Wistar rats were acclimated to the testing facility and handled daily (10 min/day) for 7 days prior to initiating the experiment. […] Rats were placed in white Plexiglas boxes (50×50×50 cm) and videotaped for 10 minutes to acclimate them to the test apparatus. Ultrasonic vocalizations (USV) were recorded with a microphone mounted 45 cm above the open field box to establish baseline, non-treatment related USV responses (50-kHz calls) in each rat. The next day, rats were injected with saline (1 mL/kg body weight, IP) and immediately placed into open field-testing boxes. USVs were recorded for 10 min.

[3] = single dose 32 mg ruboxistaurin, healthy subjects (FIG. 5); cited from earlier work
[4] = in vivo; cited from earlier work
[5] = human, microsomes, 1 μM
[6] = system: protein kinase C; conditions: cited from earlier work

Molecule | Mean brain ([1]; 0.25 hr) | Mean plasma ([1]; 0.25 hr) | Mean brain ([1]; 1 hr) | Mean plasma ([1]; 1 hr) | Mean brain ([1]; 4 hr) | Mean plasma ([1]; 4 hr) | effect on ultrasonic appetitive vocalizations (50-kHz calls) [2] | half-life (t½) [3] | elimination half-life [4] | increase of compound levels at 15 minutes by CYP3A4 inhibitor troleandomycin [5] | potency of protein kinase C inhibition, ruboxistaurin vs. N-desmethyl ruboxistaurin [6]
(12E,32E,7S)-7-((methylamino)methyl)-22,25-dihydro-11H,21H,31H-6-oxa-1,3(3,1)-diindola-2(3,4)-pyrrolacyclononaphane-22,25-dione hydrochloride [N-desmethyl ruboxistaurin] | 21.0 ng/g | 73.3 ng/mL | 19.5 ng/g | 43.5 ng/mL | 13.3 ng/g | 11.8 ng/mL | able to reduce ultrasonic appetitive vocalizations | 23.9 h |  |  | 
[Li] [lithium] |  |  |  |  |  |  |  |  | about 18 hours |  | 
CN(C)C[C@@H]1CCn2cc(c3ccccc32)C2=C(C(=O)NC2=O)c2cn(c3ccccc23)CCO1 [Ruboxistaurin] |  |  |  |  |  |  |  | 5.25 h |  | 23 fold | equipotent
